Values quoted from earlier work as cited in publication PMC6270305 (Molecules, 2013).
Like-named read-outs stand apart in the source and are kept apart here.

[1] = human serum, peptide described in the preliminary communication

| Compound | t1/2 (human serum half-life) (human, serum) | t1/2 (human serum half-life) [1] |
| --- | --- | --- |
| Cc1cc(C)c(C[C@@H]2NC(=O)[C@H](Cc3ccccc3)NC(=O)[C@H](CC(N)=O)NC(=O)[C@H](CCCCN)NC(=O)[C@@H](NC(=O)CNC(=O)[C@H](C)N)CSSC[C@@H](C(=O)O)NC(=O)[C@H](CO)NC(=O)[C@H]([C@@H](C)O)NC(=O)[C@H](Cc3ccccc3)NC(=O)[C@H]([C@@H](C)O)NC(=O)[C@H](CCCCN)NC(=O)[C@@H](Cc3c[nH]c4ccccc34)NC2=O)c(C)c1 [Peptide 5, [L-Msa7,D-Trp8]-SRIF] | 25 h | – |
| [L-Msa6,D-Trp8]-SRIF [Peptide 4] | – | 26 h |
| [L-Msa7]-SRIF [Peptide 2] | – | 5.2 h |
| [L-Msa11,D-Trp8]-SRIF [Peptide 6] | – | 41 h |
